Laboratory results published in US9024041B2, “P38 MAP kinase inhibitors” (Respivert Ltd., priority 2010, dated 2015).
Entries after “also recorded” stand apart in the source; their conditions may differ. Marks after values point to notes of the source that are not given here.

Assays:
[1] = biological target: T1, p38 MAPKα isoform (MAPK14: Invitrogen) (Homo sapiens, UniProt Q16539); assay: p38 MAPKα enzyme inhibition assay (FRET, Z-LYTE, via MAPKAP-K2 activation); type: biochemical; settings: 2 hr pre-incubation, ATP 10.0 μM; read-out: Enzyme Inhibition IC50 p38α
T1 construct: purchased Invitrogen

[2] = biological target: T2, Recombinant, phosphorylated p38 MAPKγ (MAPK12:Invitrogen) (Homo sapiens, UniProt P53778); assay: p38 MAPKγ enzyme inhibition assay (FRET, Z-LYTE); type: biochemical; settings: 2 hr pre-incubation, ATP 100 μM; read-out: Enzyme Inhibition IC50 p38γ
T2 construct: purchased Invitrogen
T2 sequence (P53778 1-367): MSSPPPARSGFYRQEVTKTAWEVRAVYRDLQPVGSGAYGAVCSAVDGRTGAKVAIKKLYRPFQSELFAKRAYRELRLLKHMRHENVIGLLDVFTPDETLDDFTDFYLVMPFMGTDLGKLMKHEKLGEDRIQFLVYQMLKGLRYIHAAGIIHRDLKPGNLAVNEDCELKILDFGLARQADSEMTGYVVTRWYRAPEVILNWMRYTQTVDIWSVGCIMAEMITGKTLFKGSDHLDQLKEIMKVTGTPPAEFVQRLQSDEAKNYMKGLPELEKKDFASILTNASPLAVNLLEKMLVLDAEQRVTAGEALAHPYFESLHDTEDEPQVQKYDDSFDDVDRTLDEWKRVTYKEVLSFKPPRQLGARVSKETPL

[3] = test system: LPS-induced TNFα release in THP-1 cells; assay: LPS-induced TNFα release in THP-1 cells; type: cell-based; settings: Homo sapiens, 3 μg/mL LPS, 4 hr
In short: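 Human monocytic cells were stimulated with 3 μg/mL E. coli LPS for 4 hr. Supernatant TNFα was measured by sandwich ELISA. Inhibition was taken relative to vehicle control, and IC50 derived from the concentration-response curve.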

[4] = test system: LPS-induced TNFα release in d-U937 cells; assay: LPS-induced TNFα release in d-U937 cells; type: cell-based; settings: Homo sapiens, dU937, 4 h; read-out: LPS/TNFα REC50 d-U937
In short: (§1)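 U937 cells differentiated with PMA (100 ng/mL, 48–72 hr), pre-incubated with compound 2 hr, then stimulated with 0.1 μg/mL E. coli O111:B4 LPS for 4 hr. Supernatant TNFα and IL-8 measured by sandwich ELISA; REC50 (TNFα) and IC50 (IL-8 inhibition vs vehicle) taken from concentration-response curves.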

[5] = test system: LPS-induced IL-8 release in d-U937 cells; assay: LPS-induced IL-8 release in d-U937 cells; type: cell-based; settings: Homo sapiens, dU937, 0.1 μg/mL LPS, 4 hr
In short: as §1

[6] = test system: Poly I:C-induced ICAM-1 expression in BEAS2B cells; assay: Poly I:C-induced ICAM-1 induction in BEAS2B cells; type: cell-based; settings: Homo sapiens, BEAS-2B, poly I:C 1 μg/mL, 18 hr, read-out: PolyI:C/ICAM1 IC50 BEAS2B
In short: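 Human bronchial epithelial BEAS2B cells were pre-incubated with compound for 2 h, then transfected with poly I:C at 1 μg/mL. Surface ICAM-1 was measured 18 h later by cell-based ELISA (OD450–655), normalised to crystal-violet cell number (OD595). IC50 was taken from the concentration–response curve against vehicle.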

[7] = test system: Differentiated U937 cells; assay: MTT assay: cell viability on exposure to test compounds; type: cell-based, human; settings: percentage loss of cell viability vs vehicle; for MTT Assay (Viability) 4 h d-U937: 5% FCS; for MTT Assay (Viability) 24 h d-U937: 10% FCS
In short: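 Differentiated U937 cells were pre-incubated with compound for either 4 h in 5% FCS or 24 h in 10% FCS, then given MTT for 1 h. Formazan was dissolved in DMSO and read at 550 nm. Viability loss is expressed as % versus 0.5% DMSO vehicle, so an apparent gain appears as a negative value.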

[8] = test system: LPS-induced neutrophil accumulation in Balb/c mice; assay: LPS-induced neutrophil accumulation in mice; type: in vivo; settings: for % inhibition of Influx / Neutrophil numbers in BAL: 0.2 mg/mL intra tracheal, 8 h pre-dose before LPS; for inhibitory effects versus neutrophil accumulation into the BALF (in words): dosed 8 hr prior to LPS challenge
Procedure: LPS-Induced Neutrophil Accumulation in Mice
Non-fasted Balb/c mice were dosed by the intra tracheal route with either vehicle, or the test substance at the indicated times (within the range 2-12 hr) before stimulation of the inflammatory response by application of an LPS challenge. At T=0, mice were placed into an exposure chamber and exposed to LPS. After a further 8 hr the animals were anesthetized, their tracheas cannulated and BALF extracted by infusing and then withdrawing from their lungs 1.0 mL of PBS via the tracheal catheter. Total and differential white cell counts in the BALF samples were measured using a Neubaur haemocytometer. Cytospin smears of the BALF samples were prepared by centrifugation at 200 rpm for 5 min at RT and stained using a DiffQuik stain system (Dade Behring). Cells were counted using oil immersion microscopy.

T1 sequence (Q16539 whole entry, canonical isoform): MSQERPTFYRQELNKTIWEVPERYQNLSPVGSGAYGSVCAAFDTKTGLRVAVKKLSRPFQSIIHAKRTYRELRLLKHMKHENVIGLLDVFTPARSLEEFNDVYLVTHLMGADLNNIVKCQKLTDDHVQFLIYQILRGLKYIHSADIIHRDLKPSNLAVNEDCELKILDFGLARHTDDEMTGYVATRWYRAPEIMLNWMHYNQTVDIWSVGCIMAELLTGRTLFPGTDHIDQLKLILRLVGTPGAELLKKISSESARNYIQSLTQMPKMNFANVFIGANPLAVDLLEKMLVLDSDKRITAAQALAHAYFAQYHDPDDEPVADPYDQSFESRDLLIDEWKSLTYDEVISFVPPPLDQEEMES

| IC50 [1] | IC50 [2] | IC50 [3] | EC50 [4] | IC50 [5] | Compound | IC50 [6] | MTT Assay (Viability) 4 h d-U937 ([7]; 1 μg/mL) | MTT Assay (Viability) 24 h d-U937 ([7]; 1 μg/mL) | % inhibition of Influx [8] | Neutrophil numbers in BAL [8] | inhibitory effects versus neutrophil accumulation into the BALF (in words) [8] | MTT Assay (Viability) 4 h d-U937 ([7]; 10 μg/mL) | MTT Assay (Viability) 24 h d-U937 ([7]; 10 μg/mL) |
| --- | --- | --- | --- | --- | --- | --- | --- | --- | --- | --- | --- | --- | --- |
| 10.7 nM | 168 nM | 1.3 nM | 0.03 nM | 8.6 nM | COCC(=O)Nc1cc(Oc2ccc(NC(=O)Nc3cc(C(C)(C)C)nn3-c3ccc(CO)c(Cl)c3)c3ccccc23)ccn1 [Example 13, N-(4-(4-(3-(3-tert-Butyl-1-(3-chloro-4-(hydroxymethyl)phenyl)-1H-pyrazol-5-yl)ureido)naphthalen-1-yloxy)pyridin-2-yl)-2-methoxyacetamide] | 2.3 nM | −28.5% | 27.0% | 43% | 9.9 ± 1.2 × 10^5/mL | inhibitory effects; also recorded: particularly marked |  |  |
| 4.5 nM | 54.3 nM | 1.2 nM | 1.2 nM | 29.6 nM | COCC(=O)Nc1cc(Oc2ccc(NC(=O)Nc3cc(C(C)(C)C)nn3-c3ccc(OC)nc3)c3ccccc23)ccn1 [Example 16, N-(4-(4-(3-(3-tert-Butyl-1-(6-methoxypyridin-3-yl)-1H-pyrazol-5-yl)ureido)naphthalen-1-yloxy)pyridin-2-yl)-2-methoxyacetamide] | 8.1 nM | −16.7% | −6.2% | 55% | 6.3 ± 1.2 × 10^5/mL | inhibitory effects; also recorded: particularly marked |  |  |
| 2 nM | 89.3 nM | 1.5 nM |  | 1.9 nM | CN(C)C(=O)Nc1cc(Oc2ccc(NC(=O)Nc3cc(C(C)(C)C)nn3-c3ccc(O)cc3)c3ccccc23)ccn1 [Example 34, 3-(4-(4-(3-(3-tert-butyl-1-(4-hydroxyphenyl)-1H-pyrazol-5-yl)ureido)naphthalen-1-yloxy)pyridin-2-yl)-1,1-dimethylurea] | 4.4 nM | −25.8% | −43.4% | 14% | 12.0 ± 1.7 × 10^5/mL | inhibitory effects |  |  |
| 12.7 nM | 4150 nM | 242 nM | 104 nM | 165 nM | COCC(=O)Nc1cc(COc2ccc(NC(=O)Nc3cc(C(C)(C)C)nn3-c3ccc(OC)cc3)c(C)c2C)ccn1 [Example 59, N-(4-((4-(3-(3-tert-butyl-1-(4-methoxyphenyl)-1H-pyrazol-5-yl)ureido)-2,3-dimethylphenoxy)methyl)pyridin-2-yl)-2-methoxy acetamide] | 277 nM | 11.3% | 0.9% |  |  |  |  |  |
| 13 nM | > 17500 nM | 122 nM | 24.3 nM | 364 nM | CNC(=O)Nc1cc(COc2ccc(NC(=O)Nc3cc(C(C)(C)C)nn3-c3ccc(OC)cc3)c(C)c2C)ccn1 [Example 60, 1-(4-((4-(3-(3-tert-butyl-1-(4-methoxyphenyl)-1H-pyrazol-5-yl)ureido)-2,3-dimethylphenoxy)methyl)pyridin-2-yl)-3-methylurea] | > 175 nM | 17.2% | −0.2% |  |  |  |  |  |
| 12.8 nM | 2810 nM | 1260 nM | 120 nM | 204 nM | COCC(=O)Nc1cc(COc2ccc(NC(=O)Nc3cc(C(C)(C)C)nn3-c3ccc(OC)nc3)c(C)c2C)ccn1 [Example 61, N-(4-((4-(3-(3-tert-butyl-1-(6-methoxypyridin-3-yl)-1H-pyrazol-5-yl)ureido)-2,3-dimethylphenoxy)methyl)pyridin-2-yl)-2-methoxy acetamide] | > 1700 nM | 3.5% | −5.1% |  |  |  |  |  |
| 14.8 nM | 20.3 nM | 2.6 nM | 2.5 nM | 14.4 nM | CNC(=O)Nc1cc(Oc2ccc(NC(=O)Nc3cc(C(C)(C)C)nn3-c3ccc(O)nc3)c(C)c2C)ccn1 [Example 62, 1-(4-(4-(3-(3-tert-butyl-1-(6-hydroxypyridin-3-yl)-1H-pyrazol-5-yl)ureido)-2,3-dimethylphenoxy)pyridin-2-yl)-3-methylurea] | 24.6 nM | −1.1% | −2.6% |  |  |  |  |  |
| 16.2 nM | > 17500 nM | 28.3 nM | 26.3 nM | 125 nM | CNC(=O)Nc1cc(COc2ccc(NC(=O)Nc3cc(C(C)(C)C)nn3-c3ccc(OC)nc3)c(C)c2C)ccn1 [Example 63, 1-(4-((4-(3-(3-tert-butyl-1-(6-methoxypyridin-3-yl)-1H-pyrazol-5-yl)ureido)-2,3-dimethylphenoxy)methyl)pyridin-2-yl)-3-methylurea] | 178 nM | 32.5% | 21.2% |  |  |  |  |  |
| 17.1 nM | 1650 nM | 10.9 nM | 2.1 nM | 7.4 nM | COCC(=O)Nc1cc(Cc2ccc(NC(=O)Nc3cc(C(C)(C)C)nn3-c3ccc(C)cc3)c3ccccc23)ccn1 [Example 64, N-(4-((4-(3-(3-tert-butyl-1-(p-tolyl)-1H-pyrazol-5-yl)ureido)naphthalen-1-yl)methyl)pyridin-2-yl)-2-methoxyacetamide] | 20.1 nM |  |  |  |  |  | −3.7^b % | 61.6^b % |
| 1.2 nM | 275 nM | 10.7 nM | 10.9 nM | 18.9 nM | COCCOCC(=O)Nc1cc(Cc2ccc(NC(=O)Nc3cc(C(C)(C)C)nn3-c3ccc(C)cc3)c3ccccc23)ccn1 [Example 65, N-(4-((4-(3-(3-tert-butyl-1-p-tolyl-1H-pyrazol-5-yl)ureido)naphthalen-1-yl)methyl)pyridin-2-yl)-2-(2-methoxyethoxy)acetamide] | 62.7 nM |  |  |  |  |  | −1.5^b % | 55.9^b % |
| 7.3 nM | 7360 nM | 2.9 nM | 1 nM | 171 nM | COCC(=O)Nc1cc(C(=O)c2ccc(NC(=O)Nc3cc(C(C)(C)C)nn3-c3ccc(C)cc3)c3ccccc23)ccn1 [Example 66, N-(4-(4-(3-(3-tert-butyl-1-p-tolyl-1H-pyrazol-5-yl)ureido)-1-naphthoyl)pyridin-2-yl)-2-methoxyacetamide] | 48.4 nM |  |  |  |  |  | 11.0^b % | 71.1^b % |
